Results from ChEMBL document CHEMBL3045652, “Biorational glycol diesters as dietary toxins versus bioefficacy of sucrose octanoate against lepidopteran larvae” (Ind Crops Prod, 2012).
Values after ≈ are worked out from the molar mass of the structure shown. Active and inactive are the calls of the source. No cut-off for these calls is given here.

Legend:
Helicoverpa armigera [1] = experiment: Insecticidal activity against second-instar larval stage of Helicoverpa armigera fed with artificial diet containing compound assessed as growth inhibition after 7 days; assay type: functional, organism-based; details: for EC50: 168 h
Spodoptera litura [2] = experiment: Antifeedant activity against third-instar larval stage of Spodoptera litura fed with artificial diet containing compound assessed as relative growth rate at 8.25 mg/ml after 3 days (reference value: 1.37 +/- 0.12 mg/mg/day); assay type: functional
Helicoverpa armigera [3] = experiment: Antifeedant activity against third-instar larval stage of Helicoverpa armigera fed with artificial diet containing compound assessed as efficiency index of ingested food at 9.88 mg/ml after 3 days (reference value: 52%); assay type: functional
Helicoverpa armigera [4] = experiment: Antifeedant activity against third-instar larval stage of Helicoverpa armigera fed with artificial diet containing compound assessed as relative consumption rate at 9.88 mg/ml after 3 days (reference value: 1.88 +/- 0.14 mg/mg/day); assay type: functional
Spodoptera litura [5] = experiment: Insecticidal activity against second-instar larval stage of Spodoptera litura fed with artificial diet containing compound assessed as mortality after 7 days; assay type: functional; details: 168 h
Helicoverpa armigera [6] = experiment: Insecticidal activity against second-instar larval stage of Helicoverpa armigera fed with artificial diet containing compound assessed as mortality after 7 days; assay type: functional; details: 168 h
Spodoptera litura [7] = experiment: Antifeedant activity against third-instar larval stage of Spodoptera litura fed with artificial diet containing compound assessed as relative consumption rate at 8.25 mg/ml after 3 days (reference value: 2.13 +/- 0.18 mg/mg/day); assay type: functional
Helicoverpa armigera [8] = experiment: Antifeedant activity against third-instar larval stage of Helicoverpa armigera fed with artificial diet containing compound assessed as relative growth rate at 9.88 mg/ml after 3 days (reference value: 0.97 +/- 0.13 mg/mg/day); assay type: functional
Spodoptera litura [9] = experiment: Insecticidal activity against second-instar larval stage of Spodoptera litura fed with artificial diet containing compound assessed as growth inhibition after 7 days; assay type: functional, organism-based; details: for EC50: 168 h
Spodoptera litura [10] = experiment: Antifeedant activity against third-instar larval stage of Spodoptera litura fed with artificial diet containing compound assessed as efficiency index of ingested food at 8.25 mg/ml after 3 days (reference value: 64.5%); assay type: functional
Helicoverpa armigera [11] = experiment: Antifeedant activity against third-instar larval stage of Helicoverpa armigera fed with artificial diet containing compound assessed as relative consumption rate at 9.82 mg/ml after 3 days (reference value: 1.88 +/- 0.14 mg/mg/day); assay type: functional
Spodoptera litura [12] = experiment: Antifeedant activity against third-instar larval stage of Spodoptera litura fed with artificial diet containing compound assessed as relative consumption rate at 8.32 mg/ml after 3 days (reference value: 2.13 +/- 0.18 mg/mg/day); assay type: functional
Helicoverpa armigera [13] = experiment: Antifeedant activity against third-instar larval stage of Helicoverpa armigera fed with artificial diet containing compound assessed as relative growth rate at 9.82 mg/ml after 3 days (reference value: 0.97 +/- 0.13 mg/mg/day); assay type: functional
Spodoptera litura [14] = experiment: Antifeedant activity against third-instar larval stage of Spodoptera litura fed with artificial diet containing compound assessed as relative growth rate at 8.32 mg/ml after 3 days (reference value: 1.37 +/- 0.12 mg/mg/day); assay type: functional
Spodoptera litura [15] = experiment: Antifeedant activity against third-instar larval stage of Spodoptera litura fed with artificial diet containing compound assessed as efficiency index of ingested food at 8.32 mg/ml after 3 days (reference value: 64.5%); assay type: functional
Helicoverpa armigera [16] = experiment: Antifeedant activity against third-instar larval stage of Helicoverpa armigera fed with artificial diet containing compound assessed as efficiency index of ingested food at 9.82 mg/ml after 3 days (reference value: 52%); assay type: functional
Helicoverpa armigera [17] = experiment: Antifeedant activity against third-instar larval stage of Helicoverpa armigera fed with artificial diet containing compound assessed as efficiency index of ingested food at 5.38 mg/ml after 3 days (reference value: 52%); assay type: functional
Spodoptera litura [18] = experiment: Antifeedant activity against third-instar larval stage of Spodoptera litura fed with artificial diet containing compound assessed as efficiency index of ingested food at 4.38 mg/ml after 3 days (reference value: 64.5%); assay type: functional
Spodoptera litura [19] = experiment: Antifeedant activity against third-instar larval stage of Spodoptera litura fed with artificial diet containing compound assessed as relative consumption rate at 4.38 mg/ml after 3 days (reference value: 2.13 +/- 0.18 mg/mg/day); assay type: functional
Helicoverpa armigera [20] = experiment: Insecticidal activity against second-instar larval stage of Helicoverpa armigera assessed as increase in mortality applied as spray at 1 to 10 mg/ml after 72 hr; assay type: functional, organism-based
Spodoptera litura [21] = experiment: Antifeedant activity against third-instar larval stage of Spodoptera litura fed with artificial diet containing compound assessed as relative growth rate at 4.38 mg/ml after 3 days (reference value: 1.37 +/- 0.12 mg/mg/day); assay type: functional
Helicoverpa armigera [22] = experiment: Antifeedant activity against third-instar larval stage of Helicoverpa armigera fed with artificial diet containing compound assessed as relative consumption rate at 5.38 mg/ml after 3 days (reference value: 1.88 +/- 0.14 mg/mg/day); assay type: functional
Spodoptera litura [23] = experiment: Insecticidal activity against second-instar larval stage of Spodoptera litura assessed as increase in mortality applied as spray at 1 to 10 mg/ml after 72 hr; assay type: functional, organism-based
Helicoverpa armigera [24] = experiment: Antifeedant activity against third-instar larval stage of Helicoverpa armigera fed with artificial diet containing compound assessed as relative growth rate at 5.38 mg/ml after 3 days (reference value: 0.97 +/- 0.13 mg/mg/day); assay type: functional

Row | Structure (SMILES) | growth inhibition (GI) (Helicoverpa armigera [1]) | EC50 (Helicoverpa armigera [1]) | LC50 (Spodoptera litura [5]) | LC50 (Helicoverpa armigera [6]) | growth inhibition (GI) (Spodoptera litura [9]) | EC50 (Spodoptera litura [9]) | further results
1 | CCCC(CC)C(=O)OCCCCCOC(=O)C(CC)CCC (stereo not drawn) [PENTANE-1,5-DI-(2-ETHYLHEXANOATE)] | Dose-dependent effect | 5560 µg/mL (≈ 16.9 mM) | 2000 µg/mL (≈ 6.09 mM) | 2000 µg/mL (≈ 6.09 mM) | Dose-dependent effect | 7850 µg/mL (≈ 23.9 mM) | Activity (Spodoptera litura [2]): 1.06 mg/mg/day; ECI (Helicoverpa armigera [3]): 40%; Activity (Helicoverpa armigera [4]): 1.8 mg/mg/day; Activity (Spodoptera litura [7]): 1.99 mg/mg/day; Activity (Helicoverpa armigera [8]): 0.72 mg/mg/day; ECI (Spodoptera litura [10]): 46%
2 | CC(C)C(=O)OCCCCCOC(=O)C(C)C [PENTANE-1,5-DI-ISOBUTANOATE] | Dose-dependent effect | 7580 µg/mL (≈ 31 mM) | – | – | Dose-dependent effect | 7660 µg/mL (≈ 31.4 mM) | –
3 | CCCC(=O)OCCCCCOC(=O)CCC [PENTANE-1,5-DIBUTANOATE] | Dose-dependent effect | 4500 µg/mL (≈ 18.4 mM) | – | – | Dose-dependent effect | 4860 µg/mL (≈ 19.9 mM) | –
4 | CCCCCC(=O)OCCCCCOC(=O)CCCCC [PENTANE-1,5-DIHEXANOATE] | Dose-dependent effect | 8050 µg/mL (≈ 26.8 mM) | – | – | Dose-dependent effect | 7510 µg/mL (≈ 25 mM) | –
5 | CCCCCCCC(=O)OCCCCCOC(=O)CCCCCCC [PENTANE-1,5-DIOCTANOATE] | Dose-dependent effect | 4670 µg/mL (≈ 13.1 mM) | – | – | Dose-dependent effect | 4760 µg/mL (≈ 13.4 mM) | –
6 | CCCCC(=O)OCCCCCOC(=O)CCCC [PENTANE-1,5-DIPENTANOATE] | Dose-dependent effect | 5880 µg/mL (≈ 21.6 mM) | 2000 µg/mL (≈ 7.34 mM) | 2000 µg/mL (≈ 7.34 mM) | Dose-dependent effect | 5010 µg/mL (≈ 18.4 mM) | Activity (Helicoverpa armigera [11]): 1.79 mg/mg/day; Activity (Spodoptera litura [12]): 2.02 mg/mg/day; Activity (Helicoverpa armigera [13]): 0.66 mg/mg/day; Activity (Spodoptera litura [14]): 0.94 mg/mg/day; ECI (Spodoptera litura [15]): 44%; ECI (Helicoverpa armigera [16]): 37.2%
7 | CCCC(=O)OCCOCCOCCOC(=O)CCC [TRIETHYLENE GLYCOL DIBUTANOATE] | Dose-dependent effect | 2120 µg/mL (≈ 7.3 mM) | 2000 µg/mL (≈ 6.89 mM) | 2000 µg/mL (≈ 6.89 mM) | Dose-dependent effect | 1640 µg/mL (≈ 5.65 mM) | ECI (Helicoverpa armigera [17]): 32.7%; ECI (Spodoptera litura [18]): 61%; Activity (Spodoptera litura [19]): 2.06 mg/mg/day; Activity (Helicoverpa armigera [20]): Active; Activity (Spodoptera litura [21]): 0.77 mg/mg/day; Activity (Helicoverpa armigera [22]): 1.67 mg/mg/day; Activity (Spodoptera litura [23]): Active; Activity (Helicoverpa armigera [24]): 0.54 mg/mg/day
8 | CCCCC(=O)OCCOCCOCCOC(=O)CCCC [TRIETHYLENE GLYCOL DIPENTANOATE] | Dose-dependent effect | 2090 µg/mL (≈ 6.56 mM) | – | – | Dose-dependent effect | 1540 µg/mL (≈ 4.84 mM) | –
